# Measured values: patent US6994862B2, “Formulation solubilizing water-insoluble agents and preparation method thereof” (Korea Institute of Science and Technology, priority 2000, dated 2006)
# Experiment: Release experiment of a pharmaceutical compound (dialysis bag, PBS pH 7.4, 37° C.)
# Assay type: physicochemical
# Settings: within 5 hr; dialysis bag in PBS pH 7.4, 37° C.
# Description: Dispersion was prepared by mixing 250 μL of the above liquid formulation with 1.75 mL of distilled water and shaken manually. The mixture was then added into a dialysis bag (MWCO=3,500, Spectra/Por^R, Spectrum Medical Industries, Inc., USA), both ends were tied with a closure, and placed into a 50 ml conical tube containing 10 ml of phosphate buffered saline (PBS, pH=7.4). The conical tube was placed in a 37° C. shaking water bath for the release experiment. The PBS solution located outside the dialysis tube was collected at regular intervals to analyze concentration of the pharmaceutical compound released from the dialysis bag by using Fluorescence spectroscopy (λex=370 nm, λem=480 nm). An aqueous solution where 0.7 mg of rifampicin was dissolved in 2 mL of distilled water was used as a control.
# Release experiment was performed using the liquid formulation manufactured the same as in the experimental Example 1 with the exception that 0.7 mg of bromocresol green was used in place of rifampicin. The released drug was collected from the PBS solution and subsequently analyzed for its absorbance at 617 nm. An aqueous solution, where 0.7 mg of bromocresol green was dissolved in 2 mL of distilled water, was used as a control.
smiles,measurement,value
Cc1c(C2(c3cc(Br)c(O)c(Br)c3C)OS(=O)(=O)c3ccccc32)cc(Br)c(O)c1Br [bromocresol green],drug released,more than 80%
